Earlier results as cited in patent US20240373890A1, “SWEETENER AND FLAVORING COMPOSITIONS PREPARED BY GLYCOSYLATED MOGROSIDES OR MONK FRUIT EXTRACTS, METHOD OF MAKING AND METHOD OF USE THEREOF” (EPC NATURAL PRODUCTS CO., LTD., priority 2021, published 2024).
Residues, ends and D or L forms follow the SMILES beside them.

Details: depends on the tested concentration compared with sucrose

Compound	Sweetness intensity compared with sucrose
COC(=O)[C@H](Cc1ccccc1)NC(=O)[C@@H](N)CC(=O)O [Aspartame] (H-Asp-Phe-OMe)	160-200 times
C[C@H](CC[C@@H](O[C@@H]1O[C@H](CO[C@@H]2O[C@H](CO)[C@@H](O)[C@H](O)[C@H]2O)[C@@H](O)[C@H](O)[C@H]1O[C@@H]1O[C@H](CO)[C@@H](O)[C@H](O)[C@H]1O)C(C)(C)O)[C@H]1CC[C@@]2(C)[C@@H]3CC=C4[C@@H](CC[C@H](O[C@@H]5O[C@H](CO[C@@H]6O[C@H](CO)[C@@H](O)[C@H](O)[C@H]6O)[C@@H](O)[C@H](O)[C@H]5O)C4(C)C)[C@]3(C)[C@H](O)C[C@]12C [mogroside V]	250-300 times
O=S(=O)([O-])NC1CCCCC1.[Na+] [sodium cyclamate]	about 30 times
OC[C@H]1O[C@H](O[C@]2(CCl)O[C@H](CCl)[C@@H](O)[C@@H]2O)[C@H](O)[C@@H](O)[C@H]1Cl [sucralose]	about 600 times
thaumatin	about 2000 times
